Results taken from PubChem BioAssay AID330 (DTP/NCI, 2004).
Several values for one entry are separate records, joined by “and”; a condition that tells them apart may be missing. Identical values can stand only once. Inconclusive results and toxic doses are left out.

Tested on: P388 leukemia ip, CD2F1 mice, survival T/C
Assay: NCI In Vivo Anticancer Drug Screen. Data for tumor model P388 Leukemia (intraperitoneal) in CD2F1 (CDF1) mice
Settings: endpoint: median survival time, higher = longer survival
Method in brief: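 Mice carrying the transplanted tumor received test compound or vehicle. Survival was recorded in each group, and the value is the treated-group measurement divided by that of the vehicle-treated control group.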

[1] = dose: 120.0 mg/kg/injection, schedule: Q01DX005 (ip), vehicle: Klucel (hydroxypropylcellulose) (HPC)
[2] = dose: 240.0 mg/kg/injection, schedule: Q01DX005 (ip), vehicle: Klucel (hydroxypropylcellulose) (HPC)
[3] = dose: 12.5 mg/kg/injection, schedule: Q01DX005 (ip), vehicle: saline with Tween-80
[4] = dose: 50.0 mg/kg/injection, schedule: Q01DX005 (ip), vehicle: saline with Tween-80

COP(=O)(OC)C(O)C1CCCCC1 (stereo not drawn)
T/C (dose: 12.5 mg/kg/injection, schedule: Q01DX009 (ip), vehicle: saline): 100 % of control
T/C (dose: 25.0 mg/kg/injection, schedule: Q01DX009 (ip), vehicle: saline): 116 % of control
T/C (dose: 50.0 mg/kg/injection, schedule: Q01DX009 (ip), vehicle: saline): 100 % of control and 106 % of control
T/C (dose: 200.0 mg/kg/injection, schedule: Q01DX009 (ip), vehicle: saline): 99 % of control

CSc1cc(C)c(O)c(C)c1
T/C (dose: 100.0 mg/kg/injection, schedule: Q04DX003 (ip), vehicle: other): 109 % of control
T/C (dose: 200.0 mg/kg/injection, schedule: Q04DX003 (ip), vehicle: other): 100 % of control
T/C (dose: 400.0 mg/kg/injection, schedule: Q04DX003 (ip), vehicle: other): 100 % of control

Fc1cccc(Cl)c1C(Nc1nncs1)Nc1nncs1
T/C [1]: 171 % of control
T/C [2]: 187 % of control and 194 % of control

CCc1cccc2c(NCCCCCCCCNc3c4ccccc4nc4c(CC)cccc34)c3ccccc3nc12
T/C (dose: 0.63 mg/kg/injection, schedule: Q01DX005 (ip), vehicle: other): 110 % of control
T/C (dose: 1.25 mg/kg/injection, schedule: Q01DX005 (ip), vehicle: other): 110 % of control
T/C (dose: 2.5 mg/kg/injection, schedule: Q01DX005 (ip), vehicle: other): 122 % of control
T/C (dose: 3.75 mg/kg/injection, schedule: Q01DX005 (ip), vehicle: other): 104 % of control
T/C (dose: 5.0 mg/kg/injection, schedule: Q01DX005 (ip), vehicle: other): 113 % of control
T/C (dose: 7.5 mg/kg/injection, schedule: Q01DX005 (ip), vehicle: other): 118 % of control
T/C (dose: 10.0 mg/kg/injection, schedule: Q## X009 (ip), vehicle: lactic acid): 110 % of control

COC(=O)C1C(c2ccccc2)C1(C#N)C#N (stereo not drawn)
T/C (dose: 60.0 mg/kg/injection, schedule: Q01DX005 (ip), vehicle: Klucel (hydroxypropylcellulose) (HPC)): 96 % of control
T/C [1]: 106 % of control
T/C [2]: 98 % of control

O=C(CCl)NN=C1C2CC3CC(C2)CC1C3
T/C (dose: 100.0 mg/kg/injection, schedule: Q01DX009 (ip), vehicle: saline with Tween-80): 113 % of control

CC(C)NC(=O)OCc1c(COC(=O)NC(C)C)c(-c2ccc(Cl)c(Cl)c2)n2c1CS(=O)(=O)C2
T/C (dose: 6.25 mg/kg/injection, schedule: Q01DX005 (ip), vehicle: saline with Tween-80): 101 % of control
T/C [3]: 100 % of control and 87 % of control
T/C [4]: 86 % of control

Cn1cccc1C(C=C(c1ccccc1)c1ccccc1)c1cccn1C
T/C [3]: 113 % of control
T/C (dose: 25.0 mg/kg/injection, schedule: Q01DX005 (ip), vehicle: saline with Tween-80): 114 % of control
T/C [4]: 104 % of control and 88 % of control

COC(=O)Cc1nc2ccccc2s1
T/C (dose: 60.0 mg/kg/injection, schedule: Q01DX005 (ip), vehicle: saline with Tween-80): 102 % of control
T/C (dose: 120.0 mg/kg/injection, schedule: Q01DX005 (ip), vehicle: saline with Tween-80): 104 % of control
T/C (dose: 240.0 mg/kg/injection, schedule: Q01DX005 (ip), vehicle: saline with Tween-80): 103 % of control

CC1NC(C)N2C(C)N12 (stereo not drawn)
T/C (dose: 25.0 mg/kg/injection, schedule: Q01DX001 (ip), vehicle: saline): 105 % of control
T/C (dose: 50.0 mg/kg/injection, schedule: Q01DX001 (ip), vehicle: saline): 104 % of control
T/C (dose: 100.0 mg/kg/injection, schedule: Q01DX001 (ip), vehicle: saline): 104 % of control

COc1ccc2c(NCCCCNc3c4ccccc4nc4cc(OC)ccc34)c3ccccc3nc2c1
T/C (dose: 0.62 mg/kg/injection, schedule: Q01DX009 (ip), vehicle: other): 101 % of control
T/C (dose: 1.25 mg/kg/injection, schedule: Q01DX009 (ip), vehicle: other): 102 % of control
T/C (dose: 2.5 mg/kg/injection, schedule: Q01DX009 (ip), vehicle: other): 108 % of control
T/C (dose: 5.0 mg/kg/injection, schedule: Q01DX009 (ip), vehicle: other): 101 % of control
T/C (dose: 10.0 mg/kg/injection, schedule: Q01DX009 (ip), vehicle: other): 107 % of control
T/C (dose: 20.0 mg/kg/injection, schedule: Q01DX009 (ip), vehicle: other): 110 % of control
